Results published in patent US20230095907A1, “STIMULATION OF NEURONAL PLASTICITY” (Institute of Science and Technology Austria, priority 2019, published 2023).

Key:
[1] = biological target: purinergic receptor P2Y12 (Mus musculus, UniProt Q9CPV9); conditions: 3×, S1
Protocol: Clopidogrel: Clopidogrel (Tocris 2490) was dissolved in dimethyl sulfoxide (DMSO, Sigma, D8418) and diluted 1:4 in phosphate buffer saline (PBS) before the injection.
Perineuronal net density per mm^3. In each image, neurons surrounded by perineuronal nets were counted using the spot detection function of Imaris (Oxford Instruments). The total cell count was normalised to the entire image volume and data are represented as number of cells surrounded by perineuronal nets per mm^3.
Perineuronal net density per mm^3: Each data point represents the count of neurons surrounded by PNN in one image per animal (biological replicates). For all following analyses, cell densities were calculated as a percentage with the respective control set to 100%. Linear regression was used to predict cell density per mm^3 (as absolute values or as percentages compared to the respective control) by experimental condition in cases where more than two levels were involved. Then, a two-sided T-test was then used to investigate differences between experimental conditions in cases where only two levels were involved. P-values were adjusted with the “p.adjust” function and the method set to “BH”.

[2] = system: gamma oscillations in the brain; assay: Power spectrum analysis of brain oscillations after repeated ketamine exposure; format: in vivo
[3] = ketamine; cited from earlier work
perineuronal net (PNN) [4] = assay: PNN-covered cells (WFA staining) in primary somatosensory cortex after repeated KXA-anaesthesia; format: in vivo, C57BL/6J mice; conditions: female compared with male
Protocol: (§1) C57BL/6J mice were intraperitoneal (i.p.) injected in the morning. Deep anaesthesia was confirmed based on the following parameters: • 1. Absence of the toe pinch reflex around 10 minutes after induction. • 2. Decrease in the respiratory frequency. • 3. No responses to external stimuli. • 4. Flaccid paralysis. • 5. Absence of whiskers movement.
(§2) Solution was always freshly prepared to avoid pH fluctuations.
(§3) For histological analysis, animals were shortly anesthetized with isoflurane (Zoetis) and secured to the perfusion plate. The chest was open to expose the hearth. […] The animals were initially perfused with 20 mL of phosphate-buffered saline (PBS) with heparin (100 mg/L, Sigma H0878), followed by 20 mL of 4% (w/v) paraformaldehyde (PFA, Sigma P6148) in PBS using a peristaltic pump (Behr PLP 380, speed: 25 rpm). The animals were decapitated, the retina and brain explanted, and post-fixed in 4% (w/v) PFA/PBS for 30 minutes and overnight (16h), respectively. […]
(§4) Perineuronal net density per mm^3. In each image, neurons surrounded by perineuronal nets were counted using the spot detection function of Imaris (Oxford Instruments). […]
(§5) Perineuronal net density per mm^3: Each data point represents the count of neurons surrounded by PNN in one image per animal (biological replicates). For all following analyses, cell densities were calculated as a percentage with the respective control set to 100%. […]

[5] = system: parvalbumin-positive neurons, microglia, astrocytes; assay: Cell density, apoptosis and astrogliosis in S1 (parvalbumin, Iba1, Caspase3, GFAP immunostaining)
Protocol: For histological analysis, animals were shortly anesthetized with isoflurane (Zoetis) and secured to the perfusion plate. The chest was open to expose the hearth. […] The animals were initially perfused with 20 mL of phosphate-buffered saline (PBS) with heparin (100 mg/L, Sigma H0878), followed by 20 mL of 4% (w/v) paraformaldehyde (PFA, Sigma P6148) in PBS using a peristaltic pump (Behr PLP 380, speed: 25 rpm). The animals were decapitated, the retina and brain explanted, and post-fixed in 4% (w/v) PFA/PBS for 30 minutes and overnight (16h), respectively. Then, the tissues were washed in PBS and stored at 4° C. with 0.025% (w/v) sodium azide (VWR 786-299). For cryoprotection, the tissue was transferred in 30% (w/v) sucrose (Sigma 84097) in PBS and incubated overnight at 4° C. To increase antibody permeability, the brain slices were frozen over dry-ice and thawed at room temperature for three cycles.
P-values were adjusted with the “p.adjust” function and the method set to “BH”.

perineuronal net (PNN) [6] = assay: PNN-covered cells (WFA staining) in primary visual cortex (V1); format: in vivo, C57BL/6J mice; conditions: female compared with male
Protocol: as §1, §2, §3, §4, §5

purinergic receptor P2Y12, sequence (Q9CPV9 whole entry): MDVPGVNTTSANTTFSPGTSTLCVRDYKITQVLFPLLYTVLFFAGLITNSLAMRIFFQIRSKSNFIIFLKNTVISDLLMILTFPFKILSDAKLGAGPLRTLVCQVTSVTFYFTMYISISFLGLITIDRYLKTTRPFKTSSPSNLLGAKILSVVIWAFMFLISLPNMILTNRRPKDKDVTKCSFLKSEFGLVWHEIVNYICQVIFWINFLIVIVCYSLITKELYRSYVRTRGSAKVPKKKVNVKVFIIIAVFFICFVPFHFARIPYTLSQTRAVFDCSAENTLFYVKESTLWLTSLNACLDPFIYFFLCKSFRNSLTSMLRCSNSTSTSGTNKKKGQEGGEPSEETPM

With `COC(=O)[C@H](c1ccccc1Cl)N1CCc2sccc2C1` [clopidogrel] the “loss of PNN-covered cells” value ([1]; 50 mg/Kg clopidogrel i.p. 5 minutes before KXA) was “prevented ketamine-mediated loss of PNN-covered cells” and the “microglia interaction with the PNN structure” value ([1]; clopidogrel i.p. 5 minutes before KXA) was “microglia showed less interaction with the PNN structure”.

In the case of `CNC1(c2ccccc2Cl)CCCCC1=O` (stereo not drawn) [ketamine, 2-(2-chlorophenyl)-2-(methylamino)cyclohexan-1-one], the “60 Hz frequency gamma oscillations in the brain” value [2] is given as “increase in 60 Hz frequency gamma oscillations”, the half-life [3] is given as 2 h and the “sex difference in the action (PNN loss) of repeated exposure” value (perineuronal net (PNN) [4]) is given as “accelerated in females”. For the same molecule, the apoptosis ([5]; repeated ketamine exposure) was “does not induce apoptosis”, the parvalbumin-positive neuron density ([5]; repeated ketamine exposure) was “does not induce apoptosis or alteration in parvalbumin-positive neuron density” and the “astrogliosis (GFAP)” value ([5]; repeated ketamine exposure (6×KXA)) was “nor induce astrogliosis”. For the same molecule, the “sex difference in PNN recovery rate” value (perineuronal net (PNN) [6]) was “recovery rate was similar”.
